# Measured values from ChEMBL document CHEMBL3112450, “Synthesis and in vitro antitumor evaluation of primary amine substituted quinazoline linked benzimidazole” (Bioorg Med Chem Lett, 2014).
# Legend:
# Assay type in all cases: functional
# IGROV-1 = experiment: Cytotoxicity against human IGROV1 cells assessed as cell growth at 10^-7 M after 48 hrs by SRB assay; conditions: IGROV-1, 48 h, read-out: Activity
# K562 [1] = experiment: Cytotoxicity against human K562 cells after 48 hrs by SRB assay; conditions: K562, 48 h
# T47D = experiment: Cytotoxicity against human T47D cells assessed as cell growth at 10^-4 M after 48 hrs by SRB assay; conditions: read-out: Activity
# CAKI-1 = experiment: Cytotoxicity against human Caki1 cells assessed as cell growth at 10^-4 M after 48 hrs by SRB assay; conditions: CAKI-1, 48 h, read-out: Activity
# SF-268 = experiment: Cytotoxicity against human SF268 cells assessed as cell growth at 10^-7 M after 48 hrs by SRB assay; conditions: SF-268, 48 h, read-out: Activity
# SW-620 = experiment: Cytotoxicity against human SW620 cells assessed as cell growth at 10^-7 M after 48 hrs by SRB assay; conditions: SW-620, 48 h, read-out: Activity
# MOLT-4 = experiment: Cytotoxicity against human MOLT4 cells assessed as cell growth at 10^-7 M after 48 hrs by SRB assay; conditions: MOLT-4, 48 h, read-out: Activity
# K562 [2] = experiment: Cytotoxicity against human K562 cells assessed as cell growth at 10^-7 M after 48 hrs by SRB assay; conditions: K562, 48 h, read-out: Activity
# [3] = Cytotoxicity against human Hs578T cells assessed as cell growth at 10^-8 M after 48 hrs by SRB assay; conditions: Hs-578T, read-out: Activity
# ACHN [4] = experiment: Cytotoxicity against human ACHN cells assessed as cell growth at 10^-4 M after 48 hrs by SRB assay; conditions: read-out: Activity
# SK-OV-3 [5] = experiment: Cytotoxicity against human SKOV3 cells assessed as cell growth at 10^-4 M after 48 hrs by SRB assay; conditions: SK-OV-3, 48 h, read-out: Activity
# [6] = Cytotoxicity against human OVCAR4 cells assessed as cell growth at 10^-4 M after 48 hrs by SRB assay; conditions: OVCAR-4, 48 h, read-out: Activity
# SK-MEL-5 = experiment: Cytotoxicity against human SK-MEL-5 cells assessed as cell growth at 10^-4 M after 48 hrs by SRB assay; conditions: SK-MEL-5, 48 h, read-out: Activity
# KM12 = experiment: Cytotoxicity against human KM12 cells assessed as cell growth at 10^-4 M after 48 hrs by SRB assay; conditions: KM12, 48 h, read-out: Activity
# NCI-H226 = experiment: Cytotoxicity against human NCI-H226 cells assessed as cell growth at 10^-4 M after 48 hrs by SRB assay; conditions: NCI-H226, 48 h, read-out: Activity
# RPMI-8226 [7] = experiment: Cytotoxicity against human RPMI8226 cells assessed as cell growth at 10^-4 M after 48 hrs by SRB assay; conditions: RPMI-8226, 48 h, read-out: Activity
# SK-OV-3 [8] = experiment: Cytotoxicity against human SKOV3 cells assessed as cell growth at 10^-8 M after 48 hrs by SRB assay; conditions: SK-OV-3, 48 h, read-out: Activity
# [9] = Cytotoxicity against human OVCAR4 cells assessed as cell growth at 10^-8 M after 48 hrs by SRB assay; conditions: OVCAR-4, 48 h, read-out: Activity
# M14 = experiment: Cytotoxicity against human M14 cells assessed as cell growth at 10^-8 M after 48 hrs by SRB assay; conditions: M14, 48 h, read-out: Activity
# [10] = Cytotoxicity against human Hs578T cells after 48 hrs by SRB assay; conditions: Hs-578T
# DU-145 [11] = experiment: Cytotoxicity against human DU145 cells after 48 hrs by SRB assay; conditions: DU-145, 48 h
# RXF 393 [12] = experiment: Cytotoxicity against human RXF393 cells after 48 hrs by SRB assay; conditions: RXF 393, 48 h
# ACHN [13] = experiment: Cytotoxicity against human ACHN cells after 48 hrs by SRB assay
# SK-OV-3 [14] = experiment: Cytotoxicity against human SKOV3 cells after 48 hrs by SRB assay; conditions: SK-OV-3, 48 h
# SK-MEL-28 [15] = experiment: Cytotoxicity against human SK-MEL-28 cells after 48 hrs by SRB assay; conditions: SK-MEL-28, 48 h
# NCI-H522 = experiment: Cytotoxicity against human NCI-H522 cells after 48 hrs by SRB assay; conditions: NCI-H522, 48 h
# MDA-MB-231 = experiment: Cytotoxicity against human MDA-MB-231 cells assessed as cell growth at 10^-6 M after 48 hrs by SRB assay; conditions: MDA-MB-231, 48 h, read-out: Activity
# [16] = Cytotoxicity against human Hs578T cells assessed as cell growth at 10^-6 M after 48 hrs by SRB assay; conditions: Hs-578T, read-out: Activity
# DU-145 [17] = experiment: Cytotoxicity against human DU145 cells assessed as cell growth at 10^-6 M after 48 hrs by SRB assay; conditions: DU-145, 48 h, read-out: Activity
# SK-MEL-28 [18] = experiment: Cytotoxicity against human SK-MEL-28 cells assessed as cell growth at 10^-6 M after 48 hrs by SRB assay; conditions: SK-MEL-28, 48 h, read-out: Activity
# U-251 = experiment: Cytotoxicity against human U251 cells assessed as cell growth at 10^-6 M after 48 hrs by SRB assay; conditions: U-251, 48 h, read-out: Activity
# HOP-62 = experiment: Cytotoxicity against human HOP62 cells assessed as cell growth at 10^-6 M after 48 hrs by SRB assay; conditions: HOP-62, 48 h, read-out: Activity
# SR = experiment: Cytotoxicity against human SR cells assessed as cell growth at 10^-6 M after 48 hrs by SRB assay; conditions: read-out: Activity
# RPMI-8226 [19] = experiment: Cytotoxicity against human RPMI8226 cells assessed as cell growth at 10^-6 M after 48 hrs by SRB assay; conditions: RPMI-8226, 48 h, read-out: Activity
# HL-60(TB) = experiment: Cytotoxicity against human HL-60(TB) cells assessed as cell growth at 10^-6 M after 48 hrs by SRB assay; conditions: HL-60, 48 h, read-out: Activity
# BT-549 = experiment: Cytotoxicity against human BT549 cells assessed as cell growth at 10^-7 M after 48 hrs by SRB assay; conditions: BT-549, 48 h, read-out: Activity
# PC-3 = experiment: Cytotoxicity against human PC3 cells assessed as cell growth at 10^-7 M after 48 hrs by SRB assay; conditions: PC-3, 48 h, read-out: Activity
# RXF 393 [20] = experiment: Cytotoxicity against human RXF393 cells assessed as cell growth at 10^-7 M after 48 hrs by SRB assay; conditions: RXF 393, 48 h, read-out: Activity
smiles,measurement,setting,value
C=CCn1c(C)nc2ccc(Nc3nc(Nc4ccc5nc(C)n(CC=C)c5c4)c4ccccc4n3)cc21,growth at 0.1 µM,IGROV-1,101%
same,GI50,K562 [1],1420 nM
same,LC50 (concentration killing 50% of cells),K562 [1],> 100 µM
same,growth at 100 µM,T47D,-22%
same,growth at 100 µM,CAKI-1,-28%
same,growth at 0.1 µM,SF-268,86%
same,growth at 0.1 µM,SW-620,94%
same,growth at 0.1 µM,MOLT-4,94%
same,growth at 0.1 µM,K562 [2],94%
same,growth at 0.01 µM,[3],95%
same,growth at 100 µM,ACHN [4],-69%
same,growth at 100 µM,SK-OV-3 [5],-54%
same,growth at 100 µM,[6],-43%
same,growth at 100 µM,SK-MEL-5,-24%
same,growth at 100 µM,KM12,-31%
same,growth at 100 µM,NCI-H226,-38%
same,growth at 100 µM,RPMI-8226 [7],5%
same,growth at 0.01 µM,SK-OV-3 [8],97%
same,growth at 0.01 µM,[9],99%
same,growth at 0.01 µM,M14,96%
same,GI50,[10],1710 nM
same,TGI,[10],4.08 µM
same,GI50,DU-145 [11],1850 nM
same,LC50 (50% lethal concentration),DU-145 [11],5.79 µM
same,TGI,DU-145 [11],3.27 µM
same,GI50,RXF 393 [12],1800 nM
same,TGI,RXF 393 [12],3.28 µM
same,GI50,ACHN [13],1640 nM
same,LC50,ACHN [13],5.51 µM
same,TGI,ACHN [13],3.01 µM
same,GI50,SK-OV-3 [14],1720 nM
same,LC50 (concentration killing 50% of cells),SK-OV-3 [14],5.56 µM
same,TGI,SK-OV-3 [14],3.09 µM
same,GI50,SK-MEL-28 [15],1840 nM
same,TGI,SK-MEL-28 [15],3.28 µM
same,GI50,NCI-H522,2030 nM
same,TGI,NCI-H522,3.53 µM
same,growth at 1 µM,MDA-MB-231,72%
same,growth at 1 µM,[16],81%
same,growth at 1 µM,DU-145 [17],104%
same,growth at 1 µM,SK-MEL-28 [18],102%
same,growth at 1 µM,U-251,89%
same,growth at 1 µM,HOP-62,90%
same,growth at 1 µM,SR,72%
same,growth at 1 µM,RPMI-8226 [19],83%
same,growth at 1 µM,HL-60(TB),95%
same,growth at 0.1 µM,BT-549,95%
same,growth at 0.1 µM,PC-3,88%
same,growth at 0.1 µM,RXF 393 [20],96%
